From US9540405B2, “Diaminophenothiazinium derivatives for labelling biomolecules, method and substrate for labelling oligonucleotides, and oligonucleotides obtained” (UNIVERSITE CLAUDE BERNARD LYON I, priority 2012, dated 2017)

Test: Stability study in basic medium (0.05M K2CO3 in methanol)
Type: physicochemical

Row | SMILES | Stability after treatment in 0.05M K2CO3/MeOH (4 h) | Stability after treatment in 0.05M K2CO3/MeOH (17 h)
1 | CCCCN(CCCC)c1ccc2nc3ccc(N(CCO)CCO)cc3[s+]c2c1.[I-] [Ra═Rb═butyl and Rc═Rd═ethanol, (dibutylamino)(diethanolamino)phenothiazinium iodide] | 73% | 25%
2 | CCCCN(CCCCO)c1ccc2nc3ccc(N(CCCC)CCCCO)cc3[s+]c2c1.[I-] [Ra═Rc═butyl and Rb═Rd═butanol, bis(butylbutanolamino)phenothiazinium iodide] | 91% | 66%
